Source: patent publication US12152139B2, “Composition, film, optical filter, laminate, solid-state imaging element, image display device, and infrared sensor” (FUJIFILM Corporation, priority 2018, dated 2024)
In brackets after ≈: the same amount, converted by molar mass.

Test: Solubility in propylene glycol methyl ether acetate
Assay type: physicochemical
Conditions: organic solvent or mixture, thermodynamic from solid, at 25° C., read-out: solubility in propylene glycol methyl ether acetate (compound (1))
Method: <Measurement of Solubility of Near Infrared Absorbing Pigment and Compound (1)>
Under atmospheric pressure, 99 to 101 g of a sample (precisely weighed value is defined as X g) was added to 1 L of propylene glycol methyl ether acetate at 25° C., and the mixture was stirred for 30 minutes. Next, the mixture was allowed to stand for 5 minutes and filtered, and the […] was dried under reduced pressure at 80° C. for 2 hours and weighed precisely (precisely weighed value is defined as Y g). Solubility of the sample dissolved in propylene glycol methyl ether acetate was calculated from the following expression. Solubility (g/L)=X−Y <Method for Quantifying Amine Compound in Composition>

Row | SMILES | solubility at 30 min
1 | O=c1c2ccccc2[nH]c2cc3c(=O)c4ccccc4n(CCCCS(=O)(=O)O)c3cc12 [Example P3] | ≥ 500 µg/mL
2 | O=C1C(=C2C(O)=CC(N(c3ccc(S(=O)(=O)O)cc3)c3ccc(S(=O)(=O)O)cc3)C=C2O)C(O)=C1c1c(O)cc(N(c2ccc(S(=O)(=O)O)cc2)c2ccc(S(=O)(=O)O)cc2)cc1O (centres unmarked) [Example P2] | 100 to 500 µg/mL (≈ 105 to 524 µM)
